Source: patent publication US4233445A, “7-(Substituted)-7H-pyrrolo[3.2-F]-quinazoline-1,3-diamines” (American Home Products Corporation, priority 1979, dated 1980)
≈ marks a conversion by molar mass, not a printed value. Each block holds one compound with its values, some of them ahead of it.

How the values were obtained:
S. aureus Smith = experiment: In vitro antibacterial activity (MIC), S. aureus Smith; format: cell-based; conditions: agar dilution, 18 hours at 35° C.
Protocol: (§1) The compounds have shown activity in vitro against one or more of the following strains of bacteria: S. aureus Smith, S. aureus 53-180, N. catarrhalis 8193, E. coli 9637, S. paratyphi 11737, K. pneumoniae 10031, or P. vulgaris 6896.
(§2) A stock solution or suspension of the test compound at a concentration of 2500 μg/ml. is prepared utilizing a suitable solvent or medium such as aqueous sodium hydroxide, aqueous lactic acid, methyl cellosolve, dimethylsulfoxide, dimethylacetamide, ethylene glycol, dimethylformamide, formamide, propylene glycol, acetone or methanol. Two-fold dilutions are made by adding appropriate amounts of sterile water to the solution or suspension of the test substance. One ml. quantities of each dilution are incorporated into Wellcotest Sensitivity Test Agar fortified with 5% hemolyzed horse blood (9 ml. vol.) in sterile Petri dishes to give plates containing varying concentrations of the test compound. The hardened surfaces of each plate are incubated with the test organism, and the plates are incubated for 18 hours at 35° C.

S. aureus 53-180 = experiment: In vitro antibacterial activity (MIC), S. aureus 53-180; format: cell-based; conditions: agar dilution, 18 hours at 35° C.
Protocol: as §1, §2

N. catarrhalis 8193 = experiment: In vitro antibacterial activity (MIC), N. catarrhalis 8193; format: cell-based; conditions: agar dilution, 18 hours at 35° C.
Protocol: as §1, §2

E. coli 9637 = experiment: In vitro antibacterial activity (MIC), E. coli 9637; format: cell-based; conditions: agar dilution, 18 hours at 35° C.
Protocol: as §1, §2

S. paratyphi 11737 = experiment: In vitro antibacterial activity (MIC), S. paratyphi 11737; format: cell-based; conditions: agar dilution, 18 hours at 35° C.
Protocol: as §1, §2

K. pneumoniae 10031 = experiment: In vitro antibacterial activity (MIC), K. pneumoniae 10031; format: cell-based; conditions: agar dilution, 18 hours at 35° C.
Protocol: as §1, §2

P. vulgaris 6896 = experiment: In vitro antibacterial activity (MIC), P. vulgaris 6896; format: cell-based; conditions: agar dilution, 18 hours at 35° C.
Protocol: as §1, §2

Escherichia coli (E-2) = experiment: In vivo antibacterial synergism (mouse), Escherichia coli (E-2); design: species or system Mice (male, CD-1 strain); conditions: p.o., at time of infection, Cpd. dose in combination with SM, 20160 min
Protocol: (§3) The test agent is weighed, suspended in 0.5% aqueous carboxymethyl cellulose, hemogenized (glass tissue grinder) and diluted according to the design of the experiment. Mice (male, 18±1 g., CD-1 strain) are pre-weighed, pooled, infected at random intraperitoneally with a 0.5 ml. standardized suspension (LD95 ±5%) of the bacterial organism in 5% gastric mucin and treated at random with single doses of the test agents either at the time of infection or six hours after infecting. The treated groups consist of ten mice per dosage level. Deaths are recorded daily for 14 days and the PD50 (mice are treated at time of infection) and CD50 (mice are treated six hours after infecting) values are calculated by the method of Reed and Muench [Amer. J. Hyg., 27, (1938)].

Escherichia coli (E-3) = experiment: In vivo antibacterial synergism (mouse), Escherichia coli (E-3); design: species or system Mice (male, CD-1 strain); conditions: p.o., at time of infection, Cpd. dose in combination with SM, 20160 min
Protocol: as §3

[1] = tested on: Staphylococcus aureus CHP; experiment: In vivo antibacterial synergism (mouse), Staphylococcus aureus CHP; design: species or system Mice (male, CD-1 strain); conditions: p.o., at time of infection, Cpd. dose in combination with SM, 20160 min
Protocol: as §3

Structure (SMILES): CC(C)c1cccc(Cn2ccc3c4c(N)nc(N)nc4ccc32)c1 [Example 5]
MIC (minimal inhibitory concentration) (S. aureus Smith): 1.95 mg/L (≈ 5.88 µM)
MIC (minimal inhibitory concentration) (S. aureus 53-180): 0.488 mg/L (≈ 1.47 µM)
MIC (minimal inhibitory concentration) (N. catarrhalis 8193): 3.9 mg/L (≈ 11.8 µM)
MIC (minimal inhibitory concentration) (E. coli 9637): 7.81 mg/L (≈ 23.6 µM)
MIC (minimal inhibitory concentration) (S. paratyphi 11737): 31.3 mg/L (≈ 94.4 µM)
MIC (minimal inhibitory concentration) (K. pneumoniae 10031): 0.244 mg/L (≈ 0.736 µM)
MIC (minimal inhibitory concentration) (P. vulgaris 6896): 62.5 mg/L (≈ 189 µM)

MIC (S. aureus Smith; Staphylococcus aureus, read-out: MIC (minimal inhibitory concentration)): 31.5 mg/L (≈ 90.7 µM)
Structure (SMILES): COC(=O)c1ccc(Cn2ccc3c4c(N)nc(N)nc4ccc32)cc1 [Example 8]

Structure (SMILES): Nc1nc(N)c2c(ccc3c2ccn3-c2ccncc2)n1 [Example 10, 7-(4-Pyridinyl)-7H-pyrrolo-[3,2-f]quinazoline-1,3-diamine]
PD50, SM/Cpd. (Cpd. component) (Escherichia coli (E-2)): 1.20 mg. per kg.
PD50, SM/Cpd. (Cpd. component) (Escherichia coli (E-3)): 6.25 mg. per kg.
PD50, SM/Cpd. (Cpd. component) [1]: 7.28 mg. per kg.
